# Test results: US20100004738A1, “DRUG DELIVERY COATING FOR USE WITH A MEDICAL DEVICE AND METHODS OF TREATING VASCULAR INJURY” (ATRIUM MEDICAL CORPORATION, priority 2005, published 2010)
# Columns and labels:
# Type in all cases: in vivo
# [1] = test system: rabbit illiac arteries; assay: Example 2: drug-loaded Atrium Flyer stents vs Taxus Express in rabbit iliac arteries for 28 days, histomorphic and histopathologic analyses; conditions: for EEL Area / IEL Area / Intimal Area / Lumen Area / Stenosis: mean ± SD
# Description: Histomorphic and histopathologic analyses are then performed.
# [2] = test system: rabbit illiac arteries; assay: Example 1: stents implanted in rabbit iliac arteries for 28 days, histomorphic and histopathologic analyses; parameters: Injury Score / Fibrin Score / Inflamm. Score: scale not given here; conditions: for % Endothel. / % struts with Fibrin / % struts with RBC / EEL Area / Fibrin Score / IEL Area / Inflamm. Score / Injury Score / Intimal Area / Intimal Thick. / Lumen Area / Medial Area / Medial Thick. / Stenosis / Struts with Giant cells: Atrium Flyer ALPHA-3 coated stent, mean ± SD
# Description: The Atrium Flyer is compared with bare metal stents, the Atrium Flyer coated with ALPHA-3 without drugs, and Cypher™ drug eluting stent. Histomorphic and histopathologic analyses are then performed.
# [3] = test system: rabbit's iliac vessel; assay: Rapamycin drug eluting stents in rabbit iliac vessel, inflammation (inventors' earlier studies)
# From the text: The inventors postulate, based on these animal study results, that one consequence of these types of drugs is retarded endothelial cell coverage, and that current drug eluting stents promote more chronic inflammation than would normally be present with a non drug eluting bare metal stent.
# [4] = test system: rabbit iliacs; assay: Calcineurin inhibiting compounds after vascular injury in rabbit iliacs (inventors' earlier studies); conditions: local delivery, also rat, by reducing giant cell and eosinophil formation
# From the text: Studies in rabbit iliacs following vascular injury conducted by and/or on behalf of the inventors show the benefits of using calcineurin inhibiting compounds like Tacrolimus, Cyclosporin A (CsA) and Cyclosporin derivatives, in small animals like the rat, and in rabbits. […] Such vascular injury and sirolimus medicated inflammation can be characterized as having excessive giant cell formation and esinophil propagation.
# [5] = Atrium Flyer ALPHA-3 coated stent loaded with high dose of the drug, 28 days
# [6] = Atrium Flyer ALPHA-3 coated stent loaded with low dose of the drug, 28 days
# [7] = Atrium Flyer ALPHA-3 coated stent loaded with mid-dose of the drug, 28 days
# [8] = sirolimus = Atrium drug coated stents, Cypher = commercial stent
compound,measurement,setting,value
"O=C1CCc2cc(OCCCCc3nnnn3C3CCCCC3)ccc2N1 [Cilostazol, cilostazol]",EEL Area,[1]; [5],5.73 ± 0.31 mm^2
same,IEL Area,[1]; [5],5.47 ± 0.26 mm^2
same,Intimal Area,[1]; [5],1.245 ± 0.303 mm^2
same,Lumen Area,[1]; [5],4.25 ± 0.42 mm^2
same,Stenosis,[1]; [5],22.7 ± 5.9%
same,EEL Area,[1]; [6],5.80 ± 0.22 mm^2
same,IEL Area,[1]; [6],5.51 ± 0.21 mm^2
same,Intimal Area,[1]; [6],1.246 ± 0.115 mm^2
same,Lumen Area,[1]; [6],4.26 ± 0.28 mm^2
same,Stenosis,[1]; [6],22.7 ± 2.4%
same,EEL Area,[1]; [7],5.70 ± 0.16 mm^2
same,IEL Area,[1]; [7],5.43 ± 0.14 mm^2
same,Intimal Area,[1]; [7],1.257 ± 0.321 mm^2
same,Lumen Area,[1]; [7],4.25 ± 0.39 mm^2
same,Stenosis,[1]; [7],23.0 ± 5.7%
same,reduction in neointima (in words),"[1]; Atrium Flyer coated stents, 28 days",No reduction in neointima
"CC(=O)O[C@H]1C(=O)[C@@]2(C)[C@H]([C@H](OC(=O)c3ccccc3)[C@]3(O)C[C@H](OC(=O)[C@H](O)[C@@H](NC(=O)c4ccccc4)c4ccccc4)C(C)=C1C3(C)C)[C@]1(OC(C)=O)CO[C@@H]1C[C@@H]2O [Paclitaxel, paclitaxel]",EEL Area,[1]; [5],5.63 ± 0.24 mm^2
same,IEL Area,[1]; [5],5.40 ± 0.24 mm^2
same,Intimal Area,[1]; [5],1.048 ± 0.084 mm^2
same,Lumen Area,[1]; [5],4.35 ± 0.22 mm^2
same,Stenosis,[1]; [5],19.4 ± 1.5%
same,EEL Area,[1]; [6],5.88 ± 0.41 mm^2
same,IEL Area,[1]; [6],5.58 ± 0.36 mm^2
same,Intimal Area,[1]; [6],1.234 ± 0.197 mm^2
same,Lumen Area,[1]; [6],4.35 ± 0.40 mm^2
same,Stenosis,[1]; [6],22.2 ± 4.0%
same,EEL Area,[1]; [7],5.56 ± 0.26 mm^2
same,IEL Area,[1]; [7],5.31 ± 0.25 mm^2
same,Intimal Area,[1]; [7],1.152 ± 0.243 mm^2
same,Lumen Area,[1]; [7],4.16 ± 0.27 mm^2
same,Stenosis,[1]; [7],21.8 ± 5.0%
same,in-stent neointimal growth (in words),"[1]; Atrium high dose stents, 28 days, compared with Taxus Express",suppresses in-stent neointimal growth
same,arterial healing (in words),"[1]; rabbit, in vivo",(greater) arterial healing
"CO[C@H]1C[C@@H]2CC[C@@H](C)[C@@](O)(O2)C(=O)C(=O)N2CCCC[C@H]2C(=O)O[C@H]([C@H](C)C[C@@H]2CC[C@@H](O)[C@H](OC)C2)CC(=O)[C@H](C)/C=C(\C)[C@@H](O)[C@@H](OC)C(=O)[C@H](C)C[C@H](C)/C=C/C=C/C=C/1C [Sirolimus, Sirolimus (rapamycin)]",tolerability / adverse reaction,[2]; Atrium Flyer ALPHA-3 coated stent loaded with low or high doses of sirolimus,"well tolerated, producing no adverse reaction"
same,% Endothel.,"[2]; high dose sirolimus, n = 10",97.90 ± 4.58%
same,% struts with Fibrin,"[2]; high dose sirolimus, n = 10",11.99 ± 6.81%
same,% struts with RBC,"[2]; high dose sirolimus, n = 10",2.86 ± 3.23%
same,EEL Area,"[2]; high dose sirolimus, n = 10",6.24 ± 0.25 mm^2
same,Fibrin Score,"[2]; high dose sirolimus, n = 10",0.11 ± 0.09
same,IEL Area,"[2]; high dose sirolimus, n = 10",5.90 ± 0.25 mm^2
same,Inflamm. Score,"[2]; high dose sirolimus, n = 10",0.03 ± 0.10
same,Injury Score,"[2]; high dose sirolimus, n = 10",0.04 ± 0.06
same,Intimal Area,"[2]; high dose sirolimus, n = 10",0.99 ± 0.10 mm^2
same,Intimal Thick.,"[2]; high dose sirolimus, n = 10",0.08 ± 0.03 mm
same,Lumen Area,"[2]; high dose sirolimus, n = 10",4.94 ± 0.27 mm^2
same,Medial Area,"[2]; high dose sirolimus, n = 10",0.34 ± 0.05 mm^2
same,Medial Thick.,"[2]; high dose sirolimus, n = 10",0.06 ± 0.02 mm
same,Stenosis,"[2]; high dose sirolimus, n = 10",16.73 ± 1.61%
same,Struts with Giant cells,"[2]; high dose sirolimus, n = 10, in % (unit assumed)",2.80 ± 0.63
same,% Endothel.,"[2]; low dose sirolimus, n = 8",97.62 ± 2.67%
same,% struts with Fibrin,"[2]; low dose sirolimus, n = 8",34.12 ± 20.62%
same,% struts with RBC,"[2]; low dose sirolimus, n = 8",3.46 ± 3.07%
same,EEL Area,"[2]; low dose sirolimus, n = 8",5.99 ± 0.44 mm^2
same,Fibrin Score,"[2]; low dose sirolimus, n = 8",0.20 ± 0.35
same,IEL Area,"[2]; low dose sirolimus, n = 8",5.63 ± 0.38 mm^2
same,Inflamm. Score,"[2]; low dose sirolimus, n = 8",0.53 ± 0.41
same,Injury Score,"[2]; low dose sirolimus, n = 8",0.06 ± 0.07
same,Intimal Area,"[2]; low dose sirolimus, n = 8",0.97 ± 0.11 mm^2
same,Intimal Thick.,"[2]; low dose sirolimus, n = 8",0.07 ± 0.01 mm
same,Lumen Area,"[2]; low dose sirolimus, n = 8",4.74 ± 0.32 mm^2
same,Medial Area,"[2]; low dose sirolimus, n = 8",0.36 ± 0.09 mm^2
same,Medial Thick.,"[2]; low dose sirolimus, n = 8",0.05 ± 0.01 mm
same,Stenosis,"[2]; low dose sirolimus, n = 8",17.15 ± 1.84%
same,Struts with Giant cells,"[2]; low dose sirolimus, n = 8, in % (unit assumed)",2.50 ± 1.41
same,endothelialization (in words),[2]; [8],well endothelialized
same,healing (in words),[2]; [8],delayed healing
same,EEL Area,[1]; [5],6.13 ± 0.15 mm^2
same,IEL Area,[1]; [5],5.80 ± 0.16 mm^2
same,Intimal Area,[1]; [5],1.027 ± 0.036 mm^2
same,Lumen Area,[1]; [5],4.78 ± 0.20 mm^2
same,Stenosis,[1]; [5],17.7 ± 1.1%
same,arterial healing (in words),"[1]; rabbit, in vivo",(greater) arterial healing
same,% Struts with Giant cells,"[1]; rabbit, in vivo, 28 days",21.9 ± 7.6%
same,% struts with RBC,"[1]; rabbit, in vivo, 28 days",1.2 ± 2.4%
same,Endothelium (%),"[1]; rabbit, in vivo, 28 days",97.2 ± 5.0%
same,Fibrin Score,"[1]; rabbit, in vivo, 28 days",0.41 ± 0.32
same,Inflam Score,"[1]; rabbit, in vivo, 28 days",1.00 ± 0.72
same,inflammatory response around the drug eluting stent (in words),"[3]; Rapamycin drug eluting stent, rabbit iliacs",presence of numerous giant cells and esinophils
same,amount of inflammation induced by overlapping drug coating,[3]; two separate rapamycin drug eluting stents overlapping in rabbit iliac vessel,increases nearly two fold
C=CC[C@@H]1/C=C(\C)C[C@H](C)C[C@H](OC)[C@H]2O[C@@](O)(C(=O)C(=O)N3CCCC[C@H]3C(=O)O[C@H](/C(C)=C/[C@@H]3CC[C@@H](O)[C@H](OC)C3)[C@H](C)[C@@H](O)CC1=O)[C@H](C)C[C@@H]2OC [Tacrolimus],inflammation following vascular injury (in words),[4],effectively reduce inflammation following vascular injury
Cyclosporin A,inflammation following vascular injury (in words),[4],effectively reduce inflammation following vascular injury
